Test systems include SK-OV-3; HL-60; EKVX; A498; HT-29; KM-20L2; CAKI-1; SF-295; HCC 2998; NCI-H522; UACC-257; NCI-H226; SW-620; K562; ACHN; SK-MEL-28; NCI/ADR-RES; BT-549; HCT-15.
Holding throughout (assay): growth of human tumour cells (NCI), 48 h

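Test compounds were applied to cells in 96-well plates for 48 hours at 5 doses. GI50 marks 50% less growth.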 Active and inactive are the calls of the source. Cut-off read from the data, not from the text of the source: active = GI50 up to about 1.1 µM and inactive = higher.

As to `Cc1c(C(=O)/C=C/c2ccc([N+](=O)[O-])cc2)[n+]([O-])c2ccccc2[n+]1[O-]`, the GI50 in the experiment with SK-OV-3 was > 100 µM (inactive); with HL-60, 0.923 µM (active); in the experiment on EKVX it was > 100 µM (inactive); in the experiment on A498 it was > 100 µM (inactive); with HT-29 it was 96.6 µM (inactive); in the experiment with KM-20L2, > 100 µM (inactive). Further, the GI50 in the experiment on CAKI-1 was 64.7 µM (inactive); in the experiment with SF-295 it was > 100 µM (inactive); in the experiment on HCC 2998, > 100 µM (inactive); in the experiment on NCI-H522, 20.5 µM (inactive); in the experiment with UACC-257, > 100 µM (inactive); with NCI-H226 it was > 100 µM (inactive). Besides, the GI50 with SW-620 is 67 µM (inactive); in the experiment with K562 it was 27 µM (inactive); in the experiment with ACHN, > 100 µM (inactive); with SK-MEL-28, > 100 µM (inactive).

Regarding `CCCC[C@H](CCc1ccccc1)N(C(=O)OC)N1CCC[C@H]1COC`, the GI50 in the experiment with SK-OV-3 is 24.1 µM (inactive); in the experiment with HL-60, 46.7 µM (inactive); in the experiment with EKVX, 17.5 µM (inactive); with A498 it was 18.1 µM (inactive); with HT-29, 15.1 µM (inactive); in the experiment with KM-20L2, 15.1 µM (inactive). Moreover, the GI50 in the experiment with CAKI-1 is 29.9 µM (inactive); in the experiment with SF-295, 18.7 µM (inactive); in the experiment with HCC 2998 it was 14.6 µM (inactive); in the experiment on NCI-H522, 14.1 µM (inactive); in the experiment with UACC-257, 18 µM (inactive); in the experiment on NCI-H226, 20.2 µM (inactive). Moreover, the GI50 in the experiment on SW-620 is 16.3 µM (inactive); with K562, 21.7 µM (inactive); in the experiment with ACHN, 16.8 µM (inactive); with SK-MEL-28, 19.9 µM (inactive).

Regarding `CC[C@@]1(O)C(=O)OCc2c1cc1n(c2=O)Cc2cc3cc4c(cc3nc2-1)OCO4`, the GI50 with SK-OV-3 is 0.002 µM (active); with HL-60, 0.00133 µM (active); with EKVX, 0.0881 µM (active); with NCI/ADR-RES, 1.75 nM (active); with BT-549 it was 11.8 nM (active); in the experiment with A498 it was < 0.0143 µM (active). In addition, the GI50 was 0.00472 µM (active) in the experiment with HT-29; 0.0121 µM (active) in the experiment on KM-20L2; 0.00173 µM (active) with CAKI-1; < 0.001 µM (active) in the experiment with SF-295; 0.0238 µM (active) with HCC 2998; 0.00133 µM (active) in the experiment on NCI-H522. Moreover, the GI50 is 0.054 µM (active) in the experiment with UACC-257; 0.00168 µM (active) in the experiment with NCI-H226; 0.0032 µM (active) with SW-620; 0.00304 µM (active) in the experiment with K562; < 0.001 µM (active) in the experiment on ACHN; 0.0188 µM (active) in the experiment on SK-MEL-28. Further, the GI50 in the experiment on HCT-15 is 0.0181 µM.

Take `Nc1ccc(C(=O)NN2C(=O)C(Cl)C2c2cc(Br)ccc2O)cc1` (stereo unspecified): the GI50 was > 100 µM (inactive) in the experiment with SK-OV-3; 30.1 µM (inactive) with HL-60; > 100 µM (inactive) in the experiment on EKVX; > 100 µM (inactive) in the experiment with A498; 64.6 µM (inactive) in the experiment on HT-29; > 100 µM (inactive) in the experiment on KM-20L2. Besides, the GI50 in the experiment on CAKI-1 was > 100 µM (inactive); with SF-295, > 100 µM (inactive); in the experiment with HCC 2998, > 100 µM (inactive); in the experiment on NCI-H522, 22.4 µM (inactive); with UACC-257, > 100 µM (inactive); with NCI-H226 it was > 100 µM (inactive). In addition, the GI50 in the experiment with SW-620 was > 100 µM (inactive); with K562, 70.1 µM (inactive); in the experiment on ACHN it was > 100 µM (inactive); in the experiment on SK-MEL-28, > 100 µM (inactive); with HCT-15, more than 100 µM.

Take `COC(=O)[C@@]1(C)/C(=N/NS(=O)(=O)c2ccc(C)cc2)CCC[C@@H]1C`: the GI50 with SK-OV-3 was > 100 µM (inactive); with HL-60, 6.37 µM (inactive); in the experiment with EKVX, > 100 µM (inactive); in the experiment with A498, > 100 µM (inactive); with HT-29, > 100 µM (inactive); in the experiment with KM-20L2, > 100 µM (inactive). Besides, the GI50 was > 100 µM (inactive) in the experiment with CAKI-1; > 100 µM (inactive) with SF-295; > 100 µM (inactive) with HCC 2998; 41.8 µM (inactive) in the experiment with NCI-H522; > 100 µM (inactive) in the experiment with UACC-257; > 100 µM (inactive) in the experiment on NCI-H226. Moreover, the GI50 in the experiment with K562 was 74.3 µM (inactive); with ACHN, > 100 µM (inactive); with SK-MEL-28 it was > 100 µM (inactive); in the experiment on HCT-15 it was 16.3 µM.

With `CC(=O)OC1CCC2OOC1O2` (stereo unspecified), the GI50 in the experiment with SK-OV-3, with HL-60, in the experiment with EKVX, with A498, with HT-29 and in the experiment with KM-20L2 was > 100 µM (inactive) in each case. The GI50 with CAKI-1, with SF-295, with HCC 2998, in the experiment on NCI-H522, in the experiment with UACC-257 and in the experiment with NCI-H226 was > 100 µM (inactive) each time. For the same molecule, the GI50 was > 100 µM (inactive) in the experiment with SW-620; > 100 µM (inactive) with K562; > 100 µM (inactive) with ACHN; > 100 µM (inactive) in the experiment with SK-MEL-28; more than 100 µM in the experiment with HCT-15.

As to `NCCCCNc1ccc2c(=O)[nH][nH]c(=O)c2c1`, the GI50 with SK-OV-3, with HL-60, in the experiment on EKVX, in the experiment on A498, in the experiment with HT-29 and with KM-20L2 was > 100 µM (inactive) throughout. Also, the GI50 in the experiment with CAKI-1, with SF-295, with HCC 2998, with NCI-H522, in the experiment on UACC-257 and in the experiment with NCI-H226 was > 100 µM (inactive) in each case. Besides, the GI50 in the experiment on SW-620, in the experiment on K562, in the experiment with ACHN and in the experiment with SK-MEL-28 was > 100 µM (inactive) in each case.

For `O=C1C=CC(=O)C2=C1[C@@H](O)C1CC=CC3C(=O)O[C@@H]2C31` (stereo partly specified), the GI50 is > 100 µM (inactive) in the experiment on SK-OV-3; 18.2 µM (inactive) in the experiment on HL-60; > 59.6 µM (inactive) in the experiment with EKVX; > 100 µM (inactive) with A498; 24.3 µM (inactive) in the experiment with HT-29; 23.5 µM (inactive) with KM-20L2. The GI50 with CAKI-1 is 20.4 µM (inactive); with SF-295, 39.5 µM (inactive); with HCC 2998, 18.5 µM (inactive); in the experiment on NCI-H522 it was 15.5 µM (inactive); with UACC-257, 21.8 µM (inactive); in the experiment with NCI-H226, 37.5 µM (inactive). Further, the GI50 with SW-620 was 22.4 µM (inactive); in the experiment with K562 it was 18.5 µM (inactive); in the experiment with ACHN it was 36.5 µM (inactive); in the experiment with SK-MEL-28 it was > 45.8 µM (inactive); in the experiment with HCT-15, 19.2 µM.

With `CCCCCCCCCCCOc1ccc(C(=O)C(=O)c2ccc(OCCCCCCCCCCC)c(OCCCCCCCCCCC)c2)cc1OCCCCCCCCCCC`, the GI50 with SK-OV-3, with HL-60, in the experiment with EKVX, with A498, with HT-29 and with KM-20L2 was > 100 µM (inactive) throughout. The GI50 in the experiment on CAKI-1, with SF-295, in the experiment on HCC 2998, in the experiment with NCI-H522, in the experiment on UACC-257 and in the experiment with NCI-H226 was > 100 µM (inactive) in each case. Also, the GI50 with SW-620 was > 100 µM (inactive); with K562 it was > 100 µM (inactive); in the experiment with ACHN it was > 100 µM (inactive); in the experiment with SK-MEL-28, > 100 µM (inactive); in the experiment with HCT-15, more than 100 µM.

These data come from ChEMBL document CHEMBL1201862, “PubChem BioAssay data set” (2004).
